These results are taken from patent US20170334899A1, “AMINO-SUBSTITUTED ISOTHIAZOLES” (Bayer Pharma Aktiengesellschaft, priority 2014, published 2017).

Structures are written as SMILES.

The test system of the test is human cervical tumor cell line HeLa (ATCC CCL-2). Briefly: SAC-Formation - Nocodazole-Induced Assay. The test is classed as cell-based. As to conditions: Homo sapiens, HeLa, 24 h, HeLa cells, nocodazole 0.1 μg/ml together with test compound, decrease of mitotic cells (phospho-histone H3 Ser10). The method in brief:
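HeLa cells, plated overnight, were treated 24 h at 37 °C with nocodazole (0.1 μg/ml final) plus test compound (0.005–20 μM, 0.5% DMSO) added at the same time. After fixation, anti-phospho-histone H3 Ser10 and Hoechst staining gave the mitotic cell fraction by imaging. Values came from four-parameter Hill fits.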
For orientation: IC50 means the concentration that inhibits the measured activity by half. As for `Cc1nsc(Nc2ccc(C#N)cn2)c1C(=O)Nc1ccc(S(C)(=O)=O)cc1` [Example 246, 5-[(5-cyanopyridin-2-yl)amino]-3-methyl-N-[4-(methylsulfonyl)phenyl]-1,2-thiazole-4-carboxamide], the 50% inhibitory concentration (IC50) was determined as 0.33 µM. In the case of `Cc1nsc(Nc2cnc(C(F)(F)F)cn2)c1C(=O)Nc1ccc(OCC2CCCN(C(=O)OC(C)(C)C)C2)nc1` (stereo not shown) [Example 228, tert-butyl 3-{[(5-{[(3-methyl-5-{[5-(trifluoromethyl)pyrazin-2-yl]amino}-1,2-thiazol-4-yl)carbonyl]amino}pyridin-2-yl)oxy]methyl}piperidine-1-carboxylate] it was 0.18 µM; in that of `Cc1nsc(Nc2cnc(C(F)(F)F)cn2)c1C(=O)Nc1ccc(OC2CCN(C(=O)OC(C)(C)C)CC2)c(F)c1` [Example 217, tert-butyl 4-(2-fluoro-4-{[(3-methyl-5-{[5-(trifluoromethyl)pyrazin-2-yl]amino}-1,2-thiazol-4-yl)carbonyl]amino}phenoxy)piperidine-1-carboxylate], 0.86 µM. In the case of `COC(=O)c1cc(NC(=O)c2c(C)nsc2Nc2cnc3ccccc3n2)cc(C(=O)OC)c1` [Example 237, dimethyl 5-({[3-methyl-5-(quinoxalin-2-ylamino)-1,2-thiazol-4-yl]carbonyl}amino)isophthalate] it was 0.58 µM; in that of `Cc1nsc(Nc2cc(C#N)ccn2)c1C(=O)Nc1ccc(Oc2cccc(C(F)(F)F)c2)nc1` [Example 230, 5-[(4-cyanopyridin-2-yl)amino]-3-methyl-N-{6-[3-(trifluoromethyl)phenoxy]pyridin-3-yl}-1,2-thiazole-4-carboxamide], 0.089 µM.

With `Cc1nsc(Nc2cc(C#N)ccn2)c1C(=O)Nc1cccc(C(=O)NC2CC2)c1` [Example 175, 5-[(4-cyanopyridin-2-yl)amino]-N-[3-(cyclopropylcarbamoyl)phenyl]-3-methyl-1,2-thiazole-4-carboxamide], the IC50 stood at 2.2 µM. Turning to `Cc1cc(C)n(-c2ccccc2NC(=O)c2c(C)nsc2Nc2cnc3ccccc3n2)n1` [Example 243, N-[2-(3,5-dimethyl-1H-pyrazol-1-yl)phenyl]-3-methyl-5-(quinoxalin-2-ylamino)-1,2-thiazole-4-carboxamide], the IC50 amounted to 1.8 µM. As for `Cc1nsc(Nc2ccc(C#N)cn2)c1C(=O)Nc1ccc(F)c(C(N)=O)c1` [Example 203, N-(3-carbamoyl-4-fluorophenyl)-5-[(5-cyanopyridin-2-yl)amino]-3-methyl-1,2-thiazole-4-carboxamide], the concentration for half-maximal inhibition (IC50) is 1.3 µM. In the case of `CC(=O)Nc1cc(NC(=O)c2c(C)nsc2Nc2cnc(C(F)(F)F)cn2)ccc1F` [Example 206, N-(3-acetamido-4-fluorophenyl)-3-methyl-5-{[5-(trifluoromethyl)pyrazin-2-yl]amino}-1,2-thiazole-4-carboxamide] it was 0.11 µM. As to `Cc1nsc(Nc2cncc(C(F)(F)F)n2)c1C(=O)Nc1ccc(C(=O)NC2CCN(CC(F)F)CC2)cc1` [Example 225, N-N-(4-{[1-(2,2-difluoroethyl)piperidin-4-yl]carbamoyl}phenyl)-3-methyl-5-{[6-(trifluoromethyl)pyrazin-2-yl]amino}-1,2-thiazole-4-carboxamide], the half-maximal inhibitory concentration (IC50) worked out at 0.31 µM. With `Cc1nsc(Nc2cncc(C(F)(F)F)n2)c1C(=O)Nc1ccc(OCCCN)nc1` [Example 209, N-[6-(3-aminopropoxy)pyridin-3-yl]-3-methyl-5-{[6-(trifluoromethyl)pyrazin-2-yl]amino}-1,2-thiazole-4-carboxamide], the IC50 stood at 2.1 µM. As to `Cc1nsc(Nc2cnc(C(F)(F)F)cn2)c1C(=O)Nc1ccc(OCCNC(=O)OC(C)(C)C)nc1` [Example 192, tert-butyl {2-[(5-{[(3-methyl-5-{[5-(trifluoromethyl)pyrazin-2-yl]amino}-1,2-thiazol-4-yl)carbonyl]amino}pyridin-2-yl)oxy]ethyl}carbamate], the concentration for half-maximal inhibition (IC50) is 0.037 µM. As for `CC(=O)N1CCC(Oc2ccc(NC(=O)c3c(C)nsc3Nc3cncc(C(F)(F)F)n3)cn2)CC1` [Example 17, N-{6-[(1-Acetylpiperidin-4-yl)oxy]pyridin-3-yl}-3-methyl-5-{[6-(trifluoromethyl)-pyrazin-2-yl]amino}-1,2-thiazole-4-carboxamide], the figure is 0.21 µM; as for `Cc1nsc(Nc2cnc3ccccc3n2)c1C(=O)Nc1ccc(C(N)=O)c(F)c1` [Example 201, N-(4-carbamoyl-3-fluorophenyl)-3-methyl-5-(quinoxalin-2-ylamino)-1,2-thiazole-4-carboxamide], 0.52 µM. Take `Cc1nsc(Nc2cc(C#N)ccn2)c1C(=O)Nc1cccc(C(=O)OC(C)(C)C)c1` [Example 239, tert-butyl 3-[({5-[(4-cyanopyridin-2-yl)amino]-3-methyl-1,2-thiazol-4-yl}carbonyl)amino]benzoate]: the IC50 worked out at 0.51 µM. As for `Cc1nsc(Nc2cc(C#N)ccn2)c1C(=O)Nc1cccc(NC(=O)C(C)(C)C)c1` [Example 183, 5-[(4-cyanopyridin-2-yl)amino]-N-{3-[(2,2-dimethylpropanoyl)amino]phenyl}-3-methyl-1,2-thiazole-4-carboxamide], the figure is 1.5 µM. `Cc1nsc(Nc2cnc3ccccc3n2)c1C(=O)Nc1ccccc1S(C)(=O)=O` [Example 188, 3-methyl-N-[2-(methylsulfonyl)phenyl]-5-(quinoxalin-2-ylamino)-1,2-thiazole-4-carboxamide]: the half-inhibitory concentration (IC50) worked out at 0.23 µM. Consider `Cc1nsc(Nc2cnccn2)c1C(=O)Nc1ccc(C(=O)OC(C)(C)C)cc1` [Example 184, tert-butyl 4-({[3-methyl-5-(pyrazin-2-ylamino)-1,2-thiazol-4-yl]carbonyl}amino)benzoate], for which the IC50 came out at 0.088 µM. `Cc1nsc(Nc2ccc(C#N)cn2)c1C(=O)Nc1cccc(C(=O)OC(C)(C)C)c1` [Example 240, tert-butyl 3-[({5-[(5-cyanopyridin-2-yl)amino]-3-methyl-1,2-thiazol-4-yl}carbonyl)amino]benzoate]: the half-inhibitory concentration (IC50) stood at 0.13 µM. In the case of `Cc1nsc(Nc2cnc3ccccc3n2)c1C(=O)Nc1ccc(NC2CCN(C(=O)OC(C)(C)C)CC2)nc1` [Example 234, tert-butyl 4-{[5-({[3-methyl-5-(quinoxalin-2-ylamino)-1,2-thiazol-4-yl]carbonyl}amino)pyridin-2-yl]amino}piperidine-1-carboxylate] it was 1 µM; in that of `Cc1nsc(Nc2cncc(C(F)(F)F)n2)c1C(=O)Nc1ccc(OC2CCN(C)CC2)nc1` [Example 219, 3-methyl-N-{6-[(1-methylpiperidin-4-yl)oxy]pyridin-3-yl}-5-{[6-(trifluoromethyl)pyrazin-2-yl]amino}-1,2-thiazole-4-carboxamide], 0.91 µM. In the case of `CNC(=O)c1ccc(NC(=O)c2c(C)nsc2Nc2ccc(C#N)cn2)cc1F` [Example 208, 5-[(5-cyanopyridin-2-yl)amino]-N-[3-fluoro-4-(methylcarbamoyl)phenyl]-3-methyl-1,2-thiazole-4-carboxamide], the IC50 came to 0.33 µM. As for `COc1ccc(NC(=O)c2c(C)nsc2Nc2cnc3ccccc3n2)c(CC#N)n1` [Example 235, N-[2-(cyanomethyl)-6-methoxypyridin-3-yl]-3-methyl-5-(quinoxalin-2-ylamino)-1,2-thiazole-4-carboxamide], the figure is 0.53 µM. As for `CNS(=O)(=O)c1ccc(NC(=O)c2c(C)nsc2Nc2cncc(C(F)(F)F)n2)cc1` [Example 211, 3-methyl-N-[4-(methylsulfamoyl)phenyl]-5-{[6-(trifluoromethyl)pyrazin-2-yl]amino}-1,2-thiazole-4-carboxamide], the figure is 0.096 µM.

As for `CCN(CC)CCNC(=O)c1cccc(NC(=O)c2c(C)nsc2Nc2cnccn2)c1` [Example 247, N-(3-{[2-(diethylamino)ethyl]carbamoyl}phenyl)-3-methyl-5-(pyrazin-2-ylamino)-1,2-thiazole-4-carboxamide], the 50% inhibitory concentration (IC50) was determined as 1.2 µM. Turning to `Cc1nsc(Nc2cnc3ccccc3n2)c1C(=O)Nc1ccc(OC2CCNCC2)nc1` [Example 19, 3-Methyl-N-[6-(piperidin-4-yloxy)pyridin-3-yl]-5-(quinoxalin-2-ylamino)-1,2-thiazole-4-carboxamide], the half-maximal inhibitory concentration (IC50) came to 0.32 µM. As for `Cc1nsc(Nc2cncc(C(F)(F)F)n2)c1C(=O)Nc1ccc(OCC2CCN(C(=O)OC(C)(C)C)CC2)nc1` [Example 226, tert-butyl 4-{[(5-{[(3-methyl-5-{[6-(trifluoromethyl)pyrazin-2-yl]amino}-1,2-thiazol-4-yl)carbonyl]amino}pyridin-2-yl)oxy]methyl}piperidine-1-carboxylate], the figure is 0.12 µM; as for `Cc1nsc(Nc2ccc(C#N)cn2)c1C(=O)Nc1ccc(OCCC(=O)OC(C)(C)C)nc1` [Example 199, tert-butyl 3-({5-[({5-[(5-cyanopyridin-2-yl)amino]-3-methyl-1,2-thiazol-4-yl}carbonyl)amino]pyridin-2-yl}oxy)propanoate], 0.95 µM; as for `Cc1nsc(Nc2cnc3ccccc3n2)c1C(=O)Nc1ccc(NCCNC(=O)OC(C)(C)C)nc1` [Example 244, tert-butyl (2-{[5-({[3-methyl-5-(quinoxalin-2-ylamino)-1,2-thiazol-4-yl]carbonyl}amino)pyridin-2-yl]amino}ethyl)carbamate], 3.7 µM. `Cc1nsc(Nc2cnc3ccccc3n2)c1C(=O)Nc1ccc(OCCC(=O)OC(C)(C)C)nc1` [Example 198, tert-butyl 3-{[5-({[3-methyl-5-(quinoxalin-2-ylamino)-1,2-thiazol-4-yl]carbonyl}amino)pyridin-2-yl]oxy}propanoate]: the IC50 was determined as 1 µM. In the case of `Cc1nsc(Nc2cncc(C(F)(F)F)n2)c1C(=O)Nc1ccc(C(=O)NC2CCN(C(=O)OC(C)(C)C)CC2)cc1` [Example 222, tert-butyl 4-[(4-{[(3-methyl-5-{[6-(trifluoromethyl)pyrazin-2-yl]amino}-1,2-thiazol-4-yl)carbonyl]amino}benzoyl)amino] piperidine-1-carboxylate] it was 0.77 µM.
